Source: PMC7615677 (Science translational medicine, 2023)
pIC50: −log10 of the molar value. Where two headings read alike, the source gives them in different places.

Key:
Caco-2 permeability = format: in vitro ADME; conditions: human
Experimental: (§1) The ionization constant (pKa), octanol-pH 7.4 buffer partition coefficient (Log D7.4), solubility in biorelevant buffers (FaSSIF-V2, FeSSIF-V2, FaSSGF and pH 7.4 phosphate buffered saline (PBS)) and Caco-2 permeability were determined according to previously published methods ([10]).

Caco-2 cell monolayers = experiment: Caco-2 permeability; format: in vitro ADME
Experimental: as §1

[1] = Compartmental PK modelling and repeat-dose simulation; parameters: species or system hamsters
Experimental: To support pharmacokinetic/pharmacodynamic (PKPD) analysis, data in mice and hamsters were also analyzed by compartmental modeling using Phoenix WinNonlin (version 8.2; Certara, Princeton, NJ). For each dose level, an extravascular dosing, single compartment disposition model was fit to the combined Day 1/Day 5 repeat dose plasma data. The model was parameterized with a single volume term (V/F), and with first order absorption (K01) and elimination (K10) rate constants. Initial values for the parameter estimates were obtained by fitting of the model to the Day 1 data at the lowest dose level only, and the same initial values were used across the dose range. Experimental data used in model fitting were the mean concentration-time profiles and the average dose administered to each group. The weighting scheme (1/Y2 for mouse and 1/Y for hamster) was selected based on goodness of fit of the peak region of the experimental profiles. Parameter estimates obtained through fitting were used to simulate full repeat-dose plasma concentration-time profiles with both once-daily and twice-daily (dosing at […]) administration at each dose level and treatment duration used in the efficacy studies.

COX1 = molecular target: T1, COX1 (Homo sapiens, UniProt P23219); experiment: In vitro pharmacology panel (Eurofins); format: biochemical; conditions: read-out: activity (% of DMSO control)
T1 construct: purchased Eurofins (Cerep/DiscoverX SafetyScreen44 in vitro pharmacology panel)
T1 sequence (P23219 24-599): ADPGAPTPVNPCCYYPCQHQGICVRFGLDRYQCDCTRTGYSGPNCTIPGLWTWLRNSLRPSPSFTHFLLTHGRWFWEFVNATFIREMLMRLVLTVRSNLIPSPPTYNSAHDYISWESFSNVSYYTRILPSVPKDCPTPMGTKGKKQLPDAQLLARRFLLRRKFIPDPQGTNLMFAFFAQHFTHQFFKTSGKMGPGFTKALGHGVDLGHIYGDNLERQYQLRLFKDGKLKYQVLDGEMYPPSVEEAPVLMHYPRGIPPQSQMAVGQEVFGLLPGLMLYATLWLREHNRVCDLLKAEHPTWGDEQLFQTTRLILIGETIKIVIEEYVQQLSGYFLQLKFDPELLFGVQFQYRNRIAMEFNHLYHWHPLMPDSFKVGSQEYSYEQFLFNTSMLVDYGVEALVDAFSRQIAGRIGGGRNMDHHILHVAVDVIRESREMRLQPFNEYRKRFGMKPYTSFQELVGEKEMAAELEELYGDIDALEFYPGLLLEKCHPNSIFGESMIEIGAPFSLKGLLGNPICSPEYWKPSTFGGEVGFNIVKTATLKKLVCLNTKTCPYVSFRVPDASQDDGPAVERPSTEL
Text: (§2) Listed values represent the percent change relative to the DMSO control activity. When an IC50 had to be determined, eight different concentrations were included. All values are the mean of assay readout duplicates.

COX2 = molecular target: T2, COX2 (Homo sapiens, UniProt P35354); experiment: In vitro pharmacology panel (Eurofins); format: biochemical; conditions: read-out: activity (% of DMSO control)
T2 construct: purchased Eurofins (Cerep/DiscoverX SafetyScreen44 in vitro pharmacology panel)
T2 sequence (P35354 18-604): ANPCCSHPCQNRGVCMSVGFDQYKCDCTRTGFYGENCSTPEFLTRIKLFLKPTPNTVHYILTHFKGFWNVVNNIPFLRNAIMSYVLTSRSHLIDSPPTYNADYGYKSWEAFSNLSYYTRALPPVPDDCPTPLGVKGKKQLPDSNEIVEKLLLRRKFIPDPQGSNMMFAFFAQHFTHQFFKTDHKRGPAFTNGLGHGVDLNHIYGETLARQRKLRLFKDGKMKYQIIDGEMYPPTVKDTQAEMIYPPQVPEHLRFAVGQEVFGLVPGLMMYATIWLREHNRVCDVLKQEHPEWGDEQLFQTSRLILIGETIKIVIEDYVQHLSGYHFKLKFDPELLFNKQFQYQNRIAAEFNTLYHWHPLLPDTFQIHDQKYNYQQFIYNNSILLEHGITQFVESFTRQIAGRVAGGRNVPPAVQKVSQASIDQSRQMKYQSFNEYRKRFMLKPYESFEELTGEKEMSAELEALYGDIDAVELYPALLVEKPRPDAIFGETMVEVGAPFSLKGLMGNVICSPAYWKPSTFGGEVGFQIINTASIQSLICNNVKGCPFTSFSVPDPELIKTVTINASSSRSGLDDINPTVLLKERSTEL
Text: as §2

Lck kinase = molecular target: T3, Lck kinase (Homo sapiens, UniProt P06239); experiment: In vitro pharmacology panel (Eurofins); format: biochemical; conditions: read-out: activity (% of DMSO control)
T3 construct: purchased Eurofins (Cerep/DiscoverX SafetyScreen44 in vitro pharmacology panel)
T3 sequence (P06239 whole entry): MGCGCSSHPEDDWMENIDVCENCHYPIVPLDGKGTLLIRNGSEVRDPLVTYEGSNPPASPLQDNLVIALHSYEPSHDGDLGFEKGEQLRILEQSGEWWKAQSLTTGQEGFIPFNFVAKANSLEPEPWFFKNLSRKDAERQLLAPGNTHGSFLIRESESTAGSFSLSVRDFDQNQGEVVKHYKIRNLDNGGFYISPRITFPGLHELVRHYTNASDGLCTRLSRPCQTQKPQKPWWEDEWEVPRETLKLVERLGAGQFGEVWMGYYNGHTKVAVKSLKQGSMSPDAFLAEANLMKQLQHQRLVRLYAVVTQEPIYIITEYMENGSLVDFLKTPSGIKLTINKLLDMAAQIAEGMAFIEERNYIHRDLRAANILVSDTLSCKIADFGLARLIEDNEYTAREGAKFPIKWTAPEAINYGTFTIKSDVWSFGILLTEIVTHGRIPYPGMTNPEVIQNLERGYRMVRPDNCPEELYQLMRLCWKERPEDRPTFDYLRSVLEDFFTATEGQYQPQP
Text: as §2

PDE3A = molecular target: T4, PDE3A (Homo sapiens, UniProt Q14432); experiment: In vitro pharmacology panel (Eurofins); format: biochemical
T4 construct: Eurofins (contract assay)
T4 sequence (Q14432 whole entry): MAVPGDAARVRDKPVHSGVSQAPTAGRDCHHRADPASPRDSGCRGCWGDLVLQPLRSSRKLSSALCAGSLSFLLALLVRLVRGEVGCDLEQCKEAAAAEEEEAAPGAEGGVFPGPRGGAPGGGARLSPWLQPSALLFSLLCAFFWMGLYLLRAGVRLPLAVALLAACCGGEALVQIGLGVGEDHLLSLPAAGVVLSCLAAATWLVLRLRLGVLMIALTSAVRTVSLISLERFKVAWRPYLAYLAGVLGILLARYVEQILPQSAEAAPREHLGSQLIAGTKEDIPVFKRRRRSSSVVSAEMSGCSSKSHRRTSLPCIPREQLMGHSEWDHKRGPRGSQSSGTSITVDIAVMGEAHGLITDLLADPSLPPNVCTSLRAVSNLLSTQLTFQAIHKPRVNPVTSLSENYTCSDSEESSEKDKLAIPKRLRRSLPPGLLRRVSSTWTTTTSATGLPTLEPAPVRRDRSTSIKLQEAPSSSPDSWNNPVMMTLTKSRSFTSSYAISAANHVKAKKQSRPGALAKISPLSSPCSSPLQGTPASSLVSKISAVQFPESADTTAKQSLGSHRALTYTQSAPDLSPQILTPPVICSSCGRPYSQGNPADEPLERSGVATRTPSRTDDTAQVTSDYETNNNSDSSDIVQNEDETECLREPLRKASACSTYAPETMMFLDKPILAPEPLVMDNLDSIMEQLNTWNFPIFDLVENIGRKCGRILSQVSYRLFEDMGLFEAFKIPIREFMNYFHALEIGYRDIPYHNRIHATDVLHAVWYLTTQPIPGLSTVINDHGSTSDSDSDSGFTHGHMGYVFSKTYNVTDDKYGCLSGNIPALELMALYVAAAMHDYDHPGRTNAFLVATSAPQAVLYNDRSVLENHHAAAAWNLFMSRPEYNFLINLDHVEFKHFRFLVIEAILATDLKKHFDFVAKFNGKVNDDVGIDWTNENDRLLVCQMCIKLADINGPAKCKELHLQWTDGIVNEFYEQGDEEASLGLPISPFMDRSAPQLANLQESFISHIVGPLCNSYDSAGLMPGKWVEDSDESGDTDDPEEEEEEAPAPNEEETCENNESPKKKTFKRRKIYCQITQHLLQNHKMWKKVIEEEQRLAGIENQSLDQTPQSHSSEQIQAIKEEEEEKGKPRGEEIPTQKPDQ
Text: as §2

PDE4D2 = molecular target: T5, PDE4D2 (Homo sapiens, UniProt Q08499); experiment: In vitro pharmacology panel (Eurofins); format: biochemical
T5 construct: Eurofins (contract assay)
T5 sequence (Q08499 303-809 limits assumed): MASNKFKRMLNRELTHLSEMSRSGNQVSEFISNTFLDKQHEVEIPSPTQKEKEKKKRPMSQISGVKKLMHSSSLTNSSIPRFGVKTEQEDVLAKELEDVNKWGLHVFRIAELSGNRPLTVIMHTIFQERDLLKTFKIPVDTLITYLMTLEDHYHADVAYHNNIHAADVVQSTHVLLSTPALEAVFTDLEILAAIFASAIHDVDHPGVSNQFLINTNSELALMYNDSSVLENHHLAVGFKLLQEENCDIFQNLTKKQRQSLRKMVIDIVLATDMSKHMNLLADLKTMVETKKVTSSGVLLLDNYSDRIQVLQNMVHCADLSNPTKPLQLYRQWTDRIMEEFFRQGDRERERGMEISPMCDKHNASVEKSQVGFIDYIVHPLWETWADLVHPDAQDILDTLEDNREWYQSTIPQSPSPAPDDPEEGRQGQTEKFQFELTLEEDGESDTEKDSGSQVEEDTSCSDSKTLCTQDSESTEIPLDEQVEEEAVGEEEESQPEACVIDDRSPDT
Text: as §2

acetylcholinesterase = molecular target: T6, acetylcholinesterase (Homo sapiens, UniProt P22303); experiment: In vitro pharmacology panel (Eurofins); format: biochemical; conditions: read-out: activity (% of DMSO control)
T6 construct: Eurofins (contract assay)
T6 sequence (P22303 32-614): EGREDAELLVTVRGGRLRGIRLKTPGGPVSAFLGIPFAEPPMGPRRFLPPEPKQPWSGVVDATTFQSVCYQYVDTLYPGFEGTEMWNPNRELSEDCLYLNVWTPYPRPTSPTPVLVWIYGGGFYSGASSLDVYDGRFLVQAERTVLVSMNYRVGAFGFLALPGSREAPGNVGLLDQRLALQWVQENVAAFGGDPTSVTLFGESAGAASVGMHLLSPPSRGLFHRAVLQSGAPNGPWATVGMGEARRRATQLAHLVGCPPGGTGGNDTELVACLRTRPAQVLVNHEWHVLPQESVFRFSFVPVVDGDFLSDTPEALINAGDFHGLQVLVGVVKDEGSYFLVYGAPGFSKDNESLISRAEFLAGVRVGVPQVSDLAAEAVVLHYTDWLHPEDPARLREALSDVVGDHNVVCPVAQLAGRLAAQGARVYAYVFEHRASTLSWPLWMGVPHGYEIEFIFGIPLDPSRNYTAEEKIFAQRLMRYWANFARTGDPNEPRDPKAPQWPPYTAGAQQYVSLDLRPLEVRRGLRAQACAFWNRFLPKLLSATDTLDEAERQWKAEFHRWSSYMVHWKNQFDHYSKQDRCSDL
Text: as §2

HepG2 cells = experiment: MitoXpress oxygen consumption assay; format: cell-based
Experimental: Briefly, HepG2 cells were seeded in 96-well plates in 100 μL of complete media and incubated overnight in an incubator set to maintain approximately (37°C and 5% CO2). […] Oligomycin (5 μM), FCCP (1 μM), or antimycin A or antimycin A/Rotenone (1 μM) were added to additional wells as positive controls. Prewarmed (37°C) 100% mineral oil (100 μL) was immediately added to all wells. The assay plates were transferred to a Perkin Elmer Wallac VICTOR3 System reader for time-resolved fluorescence measurements. Fluorescence (excitation 340 nm/emission 642 nm) was measured every two minutes for approximately 1-2 hrs (or until signal plateau/saturation is reached).
The dual-read time-resolved (T1 = 30 μs and T2 = 70 μs) fluorescence intensity readings (R1 and R2) from the Perkin Elmer Wallac VICTOR3 system (Perkin Elmer) were converted to lifetime fluorescence values as per guidelines detailed in the Agilent MitoXpress Xtra Oxygen Consumption Assay Manual. Calculation of the slope translates to oxygen consumption rate (OCR). Oxygen consumption rate was multiplied by 60 to determine the slope/hour for each assay well.

[2] = Reaction phenotyping with chemical CYP inhibitors; format: in vitro ADME; conditions: human liver microsomes
Experimental: Other aspects of the incubation and analysis were as described above.

[3] = hamster, plasma, po, Hamsters, 12.5 mg/kg, fitted
[4] = hamster, plasma, po, Hamsters, 25 mg/kg, fitted
[5] = hamster, plasma, po, Hamsters, 50 mg/kg, fitted
[6] = hamsters, 3.125 mg/kg bid, 5 days, simulated
[7] = hamsters, 12.5 mg/kg bid, 5 days, simulated
[8] = hamsters, 12.5 mg/kg qd, 5 days, simulated
[9] = hamsters, 25 mg/kg qd, 5 days, simulated
[10] = hamsters, 50 mg/kg qd, 5 days, simulated
[11] = 10 µM, read-out: activity (% of DMSO control)

Cc1[nH]c2nc(N)nc(C)c2c1-c1ccc(C#N)c2c1OCO2 [DNDI-6174]
Papp A→B (Caco-2 permeability): 71 ×10⁻⁶ cm/s
Papp B→A (Caco-2 permeability): 72 ×10⁻⁶ cm/s
A-B Mass balance (Caco-2 cell monolayers): 98%
B-A Mass balance (Caco-2 cell monolayers): 96%
K01 ([1]; Hamsters, 12.5 mg/kg, fitted): 0.321 h⁻¹
K10 ([1]; Hamsters, 12.5 mg/kg, fitted): 0.336 h⁻¹
V/F ([1]; Hamsters, 12.5 mg/kg, fitted): 1.57 L/kg
K01 ([1]; Hamsters, 25 mg/kg, fitted): 0.298 h⁻¹
K10 ([1]; Hamsters, 25 mg/kg, fitted): 0.295 h⁻¹
V/F ([1]; Hamsters, 25 mg/kg, fitted): 1.75 L/kg
K01 ([1]; Hamsters, 50 mg/kg, fitted): 0.660 h⁻¹
K10 ([1]; Hamsters, 50 mg/kg, fitted): 0.184 h⁻¹
V/F ([1]; Hamsters, 50 mg/kg, fitted): 1.83 L/kg
Cmax ([1]; hamster, plasma, po, 3.125 mg/kg, hamsters, 3.125 mg/kg bid, 5 days, simulated): 341 ng/mL
Cmax ([1]; hamster, plasma, po, 12.5 mg/kg, Hamsters, fitted): 2850 ng/mL
Cmax ([1]; hamster, plasma, po, 12.5 mg/kg, hamsters, 12.5 mg/kg bid, 5 days, simulated): 3690 ng/mL
AUC ([1]; hamster, plasma, po, 12.5 mg/kg, hamsters, 12.5 mg/kg bid, 5 days, simulated, read-out: AUC24 ss): 47600 ng·h/mL
AUC ([1]; hamster, plasma, po, 12.5 mg/kg, hamsters, 12.5 mg/kg bid, 5 days, simulated, read-out: Cum AUC): 238000 ng·h/mL
Cmax ([1]; hamster, plasma, po, 12.5 mg/kg, hamsters, 12.5 mg/kg qd, 5 days, simulated): 2880 ng/mL
AUC ([1]; hamster, plasma, po, 12.5 mg/kg, hamsters, 12.5 mg/kg qd, 5 days, simulated, read-out: AUC24 ss): 23800 ng·h/mL
AUC ([1]; hamster, plasma, po, 12.5 mg/kg, hamsters, 12.5 mg/kg qd, 5 days, simulated, read-out: Cum AUC): 119000 ng·h/mL
Cmax ([1]; hamster, plasma, po, 25 mg/kg, Hamsters, fitted): 5280 ng/mL
Cmax at 5 days ([1]; hamster, plasma, po, 25 mg/kg, hamsters, 25 mg/kg qd, 5 days, simulated): 5330 ng/mL
AUC ([1]; hamster, plasma, po, 25 mg/kg, hamsters, 25 mg/kg qd, 5 days, simulated, read-out: AUC24 ss): 48600 ng·h/mL
AUC ([1]; hamster, plasma, po, 25 mg/kg, hamsters, 25 mg/kg qd, 5 days, simulated, read-out: Cum AUC): 243000 ng·h/mL
Cmax ([1]; hamster, plasma, po, 50 mg/kg, Hamsters, fitted): 15600 ng/mL
Cmax ([1]; hamster, plasma, po, 50 mg/kg, hamsters, 50 mg/kg qd, 5 days, simulated): 17000 ng/mL
AUC ([1]; hamster, plasma, po, 50 mg/kg, hamsters, 50 mg/kg qd, 5 days, simulated, read-out: AUC24 ss): 148000 ng·h/mL
AUC at 5 days ([1]; hamster, plasma, po, 50 mg/kg, hamsters, 50 mg/kg qd, 5 days, simulated, read-out: Cum AUC): 742000 ng·h/mL
AUC(0-inf) [1, 3]: 23600 ng·h/mL
CL/F [1, 3]: 8.75 mL/min/kg
AUC(0-inf) [1, 4]: 48400 ng·h/mL
CL/F [1, 4]: 8.58 mL/min/kg
AUC(0-inf) [1, 5]: 140000 ng·h/mL
CL/F [1, 5]: 5.62 mL/min/kg
Cmax (unbound) [1, 6]: 31 ng/mL
Cmin [1, 6]: 13 ng/mL
Cmin (unbound) [1, 6]: 1 ng/mL
AUC24 ss (unbound) [1, 7]: 4280 ng·h/mL
Cav ss [1, 7]: 1980 ng/mL
Cav ss (unbound) [1, 7]: 178 ng/mL
Cmax (unbound) [1, 7]: 332 ng/mL
Cmin [1, 7]: 238 ng/mL
Cmin (unbound) [1, 7]: 21 ng/mL
Cum AUC (unbound) [1, 7]: 21400 ng·h/mL
AUC24 ss (unbound) [1, 8]: 2140 ng·h/mL
Cav ss [1, 8]: 991 ng/mL
Cav ss (unbound) [1, 8]: 89 ng/mL
Cmax (unbound) [1, 8]: 259 ng/mL
Cmin [1, 8]: 23 ng/mL
Cmin (unbound) [1, 8]: 2 ng/mL
Cum AUC (unbound) [1, 8]: 10700 ng·h/mL
AUC24 ss (unbound) [1, 9]: 4370 ng·h/mL
Cav ss [1, 9]: 2020 ng/mL
Cav ss (unbound) [1, 9]: 182 ng/mL
Cmax (unbound) [1, 9]: 480 ng/mL
Cmin [1, 9]: 83 ng/mL
Cmin (unbound) [1, 9]: 7 ng/mL
Cum AUC (unbound) [1, 9]: 21900 ng·h/mL
AUC24 ss (unbound) [1, 10]: 13400 ng·h/mL
Cav ss [1, 10]: 6190 ng/mL
Cav ss (unbound) [1, 10]: 557 ng/mL
Cmax (unbound) [1, 10]: 1530 ng/mL
Cmin [1, 10]: 463 ng/mL
Cmin (unbound) [1, 10]: 42 ng/mL
Cum AUC (unbound) [1, 10]: 66800 ng·h/mL
remaining activity at 10 µM (COX1): 115%
remaining activity at 10 µM (COX2): 137%
remaining activity at 10 µM (Lck kinase): 100%
remaining activity at 10 µM (PDE3A; [11]): 30.1%
pIC50 (PDE3A; human PDE3A): 5.47
remaining activity at 10 µM (PDE4D2; [11]): 27.1%
pIC50 (PDE4D2; human PDE4D2): 5.18
remaining activity at 10 µM (acetylcholinesterase): 96.8%
concentrations at which oxygen consumption was reduced (HepG2 cells): ≥ 66 µM
margin of MitoExpress no-effect concentration over free concentration at predicted human therapeutic plasma Cmax (HepG2 cells): approximately 57 fold
maximum reduction of oxygen consumption (HepG2 cells; 200 μM (highest tested)): 28%
CLint in absence or presence of CYP isoform inhibitors, in words [2]: no significant difference in the CLint values in the absence or presence of inhibitors
